Measurements: patent publication US20250313574A1, “SIALIC ACID DERIVATIVES AND METHODS OF USING SAME” (EISAI R&D MANAGEMENT CO., LTD., priority 2022, published 2025)

Key:
[1] = biological target: Recombinant Human Siglec-3/CD33 protein (His-CD33) (Homo sapiens (Human), UniProt P20138); assay: Differential scanning fluorimetry (DSF) thermal shift assay; assay type: binding; details: difference in thermal melt of CD33 protein (0.5 μM) with 50 μM compound
[2] = biological target: Recombinant human CD33 protein (Homo sapiens (Human), UniProt P20138); assay: CD33 competitive binding assay for HTS drug screen (fluorescent multivalent sialic acid probe)
Method in brief: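 Recombinant human CD33, coated overnight at 4° C from 10 μg/ml in pH 5.5 acetate, was preincubated briefly with compound. It was then exposed to a multivalent neutravidin/FITC/sialic acid analog A-375 probe (final 5 μM neutravidin, 15 μM A-375, 5 μM FITC) for 30 min at room temperature. After washing, bound FITC fluorescence was read.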

Sequence of Recombinant human CD33 protein (P20138 18-259): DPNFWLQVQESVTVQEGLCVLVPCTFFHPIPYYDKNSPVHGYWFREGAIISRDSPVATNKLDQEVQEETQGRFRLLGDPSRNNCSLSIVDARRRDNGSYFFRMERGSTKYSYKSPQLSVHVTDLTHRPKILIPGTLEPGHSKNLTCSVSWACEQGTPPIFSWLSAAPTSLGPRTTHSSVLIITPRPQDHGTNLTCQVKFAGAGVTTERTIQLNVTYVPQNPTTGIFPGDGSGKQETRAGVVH
Sequence of Recombinant Human Siglec-3/CD33 protein (His-CD33) (P20138 18-259): as above

SMILES | DSF (dTmD) [1] [°C] | EC50 [2] [µM]
Cc1cc2cc(C)c1OCCCOC[C@H](NC(=O)C1CCCOC1)COC/C=C/C[C@]1(C(=O)O)C[C@H](O)[C@@H](NC(=O)Cn3cc(C4CCCCC4)nn3)[C@@H](O1)[C@H](O)[C@H](O)CNC2=O (stereo partly drawn) [A-335] | 6.4 | 0.601
CC(=O)N[C@H]1[C@H]2O[C@](C(=O)O)(C/C=C/COC[C@@H](NC(=O)[C@@H]3CCCOC3)COCCCOc3c(C)cc(cc3C)C(=O)NC[C@@H](O)[C@H]2O)C[C@@H]1O [A-336] | 3.6 | 4.19
CC(=O)N[C@H]1[C@H]2O[C@](C(=O)O)(C/C=C/COC[C@@H](NC(=O)[C@H]3CCCOC3)COCCCOc3c(C)cc(cc3C)C(=O)NC[C@@H](O)[C@H]2O)C[C@@H]1O [A-337] | 2.2 | 14.1
Cc1cc2cc(C)c1OCCOC[C@@H](NC(=O)C1CCCOC1)COC/C=C/C[C@]1(C(=O)O)C[C@H](O)[C@@H](NC(=O)Cn3cc(C4CCCCC4)nn3)[C@@H](O1)[C@H](O)[C@H](O)CNC2=O (stereo partly drawn) [A-338] | 5.6 | 3.82
CC(=O)N[C@H]1[C@H]2O[C@](C(=O)O)(C/C=C/COC[C@H](NC(=O)C3CCCOC3)COCCOc3c(C)cc(cc3C)C(=O)NC[C@@H](O)[C@H]2O)C[C@@H]1O (stereo partly drawn) [A-339] | 4.4 | 5.91
Cc1cc2cc(C)c1OCCOC[C@@H](NC(=O)C1CCCOC1)COCCCC[C@]1(C(=O)O)C[C@H](O)[C@@H](NC(=O)Cn3cc(C4CCCCC4)nn3)[C@@H](O1)[C@H](O)[C@H](O)CNC2=O (stereo partly drawn) [A-340] | 4.22 | 3.5
Cc1cc2cc(C)c1OCCOC[C@@H](NC(=O)C1CCCOC1)COC/C=C/C[C@]1(C(=O)O)C[C@H](O)[C@@H](NC(=O)Cn3cc(C4CCCCC4)nn3)[C@@H](O1)[C@H](O)[C@H](O)CNC2=O (stereo partly drawn) [A-341] | 2.7 | 9.98
CC(=O)N[C@H]1[C@H]2O[C@](C(=O)O)(CCCCOC[C@@H](NC(=O)C3CCCOC3)COCCOc3c(C)cc(cc3C)C(=O)NC[C@@H](O)[C@H]2O)C[C@@H]1O (stereo partly drawn) [A-342] | 1.5 | 45.4
Cc1cc2cc(C)c1OCCCNC(=O)CCCCCCC[C@]1(C(=O)O)C[C@H](O)[C@@H](NC(=O)Cn3cc(C4CCCCC4)nn3)[C@@H](O1)[C@H](O)[C@H](O)CNC2=O [A-344] | 1.52 | 18
Cc1cc2cc(C)c1OCCCNC(=O)CCCCCC[C@]1(C(=O)O)C[C@H](O)[C@@H](NC(=O)Cn3cc(C4CCCCC4)nn3)[C@@H](O1)[C@H](O)[C@H](O)CNC2=O [A-345] | 3.2 | 21.4
Cc1cc2cc(C)c1OCCCCNC(=O)CCCCCC[C@]1(C(=O)O)C[C@H](O)[C@@H](NC(=O)Cn3cc(C4CCCCC4)nn3)[C@@H](O1)[C@H](O)[C@H](O)CNC2=O [A-346] | 3.4 | 13.3
Cc1cc2cc(C)c1OCCNC(=O)CCCCCCCC[C@]1(C(=O)O)C[C@H](O)[C@@H](NC(=O)Cn3cc(C4CCCCC4)nn3)[C@@H](O1)[C@H](O)[C@H](O)CNC2=O [A-347] | 3.6 | 19
CC(=O)N[C@H]1[C@H]2O[C@](C(=O)O)(CCCc3cccc(c3)[C@@H](NC(=O)C3CCCOC3)CCCCc3cc(cc(Cl)c3O)C(=O)NC[C@@H](O)[C@H]2O)C[C@@H]1O (stereo partly drawn) [A-351] | 3.1 | 15
CC(=O)N[C@H]1[C@H]2O[C@](C(=O)O)(C/C=C/c3cccc(c3)[C@@H](NC(=O)C3CCCOC3)CCCc3cc(cc(Cl)c3O)C(=O)NC[C@@H](O)[C@H]2O)C[C@@H]1O (stereo partly drawn) [A-352] | 0.7 | 94
CC(=O)N[C@H]1[C@H]2O[C@](C(=O)O)(C/C=C/c3cccc(c3)[C@@H](NC(=O)C3CCCOC3)CCCCc3cc(cc(Cl)c3O)C(=O)NC[C@@H](O)[C@H]2O)C[C@@H]1O (stereo partly drawn) [A-353] | 3.6 | 19
CC(=O)N[C@H]1[C@H]2O[C@](C(=O)O)(C/C=C/CCC[C@@H](NC(=O)[C@@H]3CCCOC3)c3cccc(c3)COc3c(C)cc(cc3C)C(=O)NC[C@@H](O)[C@H]2O)C[C@@H]1O [A-354] | 1.5 | 27.5
CC(=O)N[C@H]1[C@H]2O[C@](C(=O)O)(C/C=C/CCC[C@@H](NC(=O)[C@H]3CCCOC3)c3cccc(c3)COc3c(C)cc(cc3C)C(=O)NC[C@@H](O)[C@H]2O)C[C@@H]1O [A-355] | 1.3 | 35.4
Cc1cc2cc(C)c1OCc1cccc(c1)[C@H](NC(=O)C1CCCOC1)CCC/C=C/C[C@]1(C(=O)O)C[C@H](O)[C@@H](NC(=O)Cn3cc(C4CCCCC4)nn3)[C@@H](O1)[C@H](O)[C@H](O)CNC2=O (stereo partly drawn) [A-356] | 4.8 | 1.51
Cc1cc2cc(C)c1OCCO[C@@H]1C[C@H](OC/C=C/CC[C@]3(C(=O)O)C[C@H](O)[C@@H](NC(=O)Cn4cc(C5CCCCC5)nn4)[C@@H](O3)[C@H](O)[C@H](O)CNC2=O)N(C(=O)C2CCCOC2)C1 (stereo partly drawn) [A-358] | 3.5 | 9.43
Cc1cc2cc(C)c1OCCCNC(=O)[C@H](C)COCCCC[C@]1(C(=O)O)C[C@H](O)[C@@H](NC(=O)Cn3cc(C4CCCCC4)nn3)[C@@H](O1)[C@H](O)[C@H](O)CNC2=O [A-359] | 1.1 | 59.8

Other lines, results leading:

DSF (dTmD) [1] [°C] | EC50 [2] [µM] | SMILES
5.4 | 2.3 | Cc1cc(C(=O)NC[C@@H](O)[C@@H](O)[C@@H]2O[C@@](OC3CCCCC3NC(=O)Cn3cc(CNC(=O)c4ccccn4)nn3)(C(=O)O)C[C@H](O)[C@H]2NC(=O)Cn2cc(C3CCCCC3)nn2)cc(C)c1O (stereo partly drawn) [A-332]
4.5 | 12.2 | Cc1cc(C(=O)NC[C@@H](O)[C@@H](O)[C@@H]2O[C@@](OC3CCCCC3NC(=O)Cn3cc(-c4ccccc4)nn3)(C(=O)O)C[C@H](O)[C@H]2NC(=O)Cn2cc(C3CCCCC3)nn2)cc(C)c1O (stereo partly drawn) [A-333]
2.8 | 7.7 | Cc1cc(C(=O)NC[C@@H](O)[C@@H](O)[C@@H]2O[C@@](OC3CCCCC3NC(=O)Cn3cc(CNC(=O)N4CCOCC4)nn3)(C(=O)O)C[C@H](O)[C@H]2NC(=O)Cn2cc(C3CCCCC3)nn2)cc(C)c1O (stereo partly drawn) [A-334]
4.6 | 6.54 | CC(=O)N[C@H]1[C@H]2O[C@](C(=O)O)(C/C=C/COC[C@@H](NC(=O)OC(C)(C)C)COCCCOc3c(C)cc(cc3C)C(=O)NC[C@@H](O)[C@H]2O)C[C@@H]1O [A-343]
3.6 | 10.1 | CC(=O)N[C@H]1[C@H]2O[C@](C(=O)O)(C/C=C/c3cccc(c3)[C@@H](NC(=O)[C@H]3CCCOC3)CCCCOc3c(C)cc(cc3C)C(=O)NC[C@@H](O)[C@H]2O)C[C@@H]1O [A-348]
5.5 | 5.24 | CC(=O)N[C@H]1[C@H]2O[C@](C(=O)O)(C/C=C/c3cccc(c3)[C@@H](NC(=O)[C@@H]3CCCOC3)CCCCOc3c(C)cc(cc3C)C(=O)NC[C@@H](O)[C@H]2O)C[C@@H]1O [A-349]
1.1 | 66.1 | CC(=O)N[C@H]1[C@H]2O[C@](C(=O)O)(CC/C=C/CO[C@H]3C[C@H](CN3C(=O)C3CCCOC3)OCCOc3c(C)cc(cc3C)C(=O)NC[C@@H](O)[C@H]2O)C[C@@H]1O (stereo partly drawn) [A-357]
−0.3 | > 100 | CC(=O)N[C@H]1[C@H]([C@H](O)[C@H](O)CNC(=O)c2cc(C)c(O)c(C)c2)O[C@](CO)(CCN2CCOC[C@@]23CCN(C(=O)OC(C)(C)C)C3)C[C@@H]1O [A-360]
−0.3 | 49 | COC(=O)[C@@]1(CCN2CCOC[C@@]23CCN(C(=O)OC(C)(C)C)C3)C[C@H](O)[C@@H](NC(C)=O)[C@H]([C@H](O)[C@H](O)CNC(=O)c2cc(C)c(O)c(C)c2)O1 [A-361]
−0.3 | > 100 | CC(=O)N[C@H]1[C@H]([C@H](O)[C@H](O)CNC(=O)c2cc(C)c(O)c(C)c2)O[C@](C#N)(CCN2CCOC[C@@]23CCN(C(=O)OC(C)(C)C)C3)C[C@@H]1O [A-362]
2.6 | 6.36 | CC(=O)N[C@H]1[C@H]([C@H](O)[C@H](O)CNC(=O)c2cc(C)c(O)c(C)c2)O[C@@](CCN2CCOC[C@@]23CCN(C(=O)OC(C)(C)C)C3)(c2nn[nH]n2)C[C@@H]1O [A-363]
0.1 | > 100 | CC(=O)N[C@H]1[C@H]([C@H](O)[C@H](O)CNC(=O)c2cc(C)c(O)c(C)c2)O[C@@](CCN2CCOC[C@@]23CCN(C(=O)OC(C)(C)C)C3)(C(N)=O)C[C@@H]1O [A-364]
−0.3 | 37.5 | CC(=O)N[C@H]1[C@H]([C@H](O)[C@H](O)CNC(=O)c2cc(C)c(O)c(C)c2)O[C@@](CCN2CCOC[C@@]23CCN(C(=O)OC(C)(C)C)C3)(C(=O)NS(C)(=O)=O)C[C@@H]1O [A-365]
2.9 | 2.83 | CC(=O)N[C@H]1[C@H]([C@H](O)[C@H](O)CNC(=O)c2cc(C)c(O)c(C)c2)O[C@@](CCN2CCOC[C@@]23CCN(C(=O)OC(C)(C)C)C3)(C(=O)NC#N)C[C@@H]1O [A-366]
0.1 | > 100 | CC(=O)N[C@H]1[C@H]([C@H](O)[C@H](O)CNC(=O)c2cc(C)c(O)c(C)c2)O[C@@](CCN2CCOC[C@@]23CCN(C(=O)OC(C)(C)C)C3)(C(=O)NS(=O)(=O)C(F)(F)F)C[C@@H]1O [A-367]
−0.1 | 15 | CC(=O)N[C@H]1[C@H]([C@H](O)[C@H](O)CNC(=O)c2cc(C)c(O)c(C)c2)O[C@@](CCN2CCOC[C@@]23CCN(C(=O)OC(C)(C)C)C3)(C(=O)NS(=O)(=O)c2ccccc2)C[C@@H]1O [A-368]
